One test addresses Aurora kinase B (Homo sapiens, UniProt Q96GD4).
In test [1] the target is Casein kinase I isoform delta (Homo sapiens, UniProt P48730).
For a further test, the target named is Insulin receptor (Homo sapiens, UniProt P06213).
The target of test [2] is T1, Breakpoint cluster region protein (Homo sapiens, UniProt P11274).
T1 sequence (P11274 whole entry): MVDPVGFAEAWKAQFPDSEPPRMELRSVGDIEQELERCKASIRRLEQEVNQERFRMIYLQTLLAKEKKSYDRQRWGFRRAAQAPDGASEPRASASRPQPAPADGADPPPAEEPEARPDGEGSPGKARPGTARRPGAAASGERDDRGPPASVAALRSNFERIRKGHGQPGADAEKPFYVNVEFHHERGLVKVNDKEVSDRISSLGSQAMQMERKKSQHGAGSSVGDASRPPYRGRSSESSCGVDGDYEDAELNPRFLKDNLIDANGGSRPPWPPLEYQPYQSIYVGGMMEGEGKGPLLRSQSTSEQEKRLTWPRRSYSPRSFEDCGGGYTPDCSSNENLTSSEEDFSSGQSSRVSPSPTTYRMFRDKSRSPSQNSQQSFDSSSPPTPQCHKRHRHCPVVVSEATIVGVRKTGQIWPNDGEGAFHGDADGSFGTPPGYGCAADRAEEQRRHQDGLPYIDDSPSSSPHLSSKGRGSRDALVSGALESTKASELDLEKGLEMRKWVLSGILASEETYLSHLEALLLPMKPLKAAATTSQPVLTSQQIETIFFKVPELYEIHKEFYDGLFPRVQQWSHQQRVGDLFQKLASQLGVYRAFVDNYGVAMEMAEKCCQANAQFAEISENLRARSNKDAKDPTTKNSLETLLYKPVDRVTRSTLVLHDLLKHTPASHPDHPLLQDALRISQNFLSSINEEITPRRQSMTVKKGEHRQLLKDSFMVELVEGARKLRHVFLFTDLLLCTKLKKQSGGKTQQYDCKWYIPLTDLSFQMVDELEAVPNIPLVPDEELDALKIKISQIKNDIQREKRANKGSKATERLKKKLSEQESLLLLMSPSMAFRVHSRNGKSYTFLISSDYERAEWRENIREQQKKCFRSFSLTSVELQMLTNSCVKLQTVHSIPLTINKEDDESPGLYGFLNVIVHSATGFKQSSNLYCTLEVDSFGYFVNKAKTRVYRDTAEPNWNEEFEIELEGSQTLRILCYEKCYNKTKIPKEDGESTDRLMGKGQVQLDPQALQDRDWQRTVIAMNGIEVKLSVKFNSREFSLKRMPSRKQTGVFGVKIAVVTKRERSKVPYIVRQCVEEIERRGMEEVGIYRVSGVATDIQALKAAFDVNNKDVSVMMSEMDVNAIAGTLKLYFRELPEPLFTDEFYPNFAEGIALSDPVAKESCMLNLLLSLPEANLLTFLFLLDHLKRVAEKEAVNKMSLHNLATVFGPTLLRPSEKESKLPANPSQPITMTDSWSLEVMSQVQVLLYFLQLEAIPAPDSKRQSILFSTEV

In test [3] the target is Cyclin-dependent kinase 12 (Homo sapiens, UniProt Q9NYV4).
In test [4] the target is T2, Phosphatidylinositol 5-phosphate 4-kinase type-2 alpha (Homo sapiens, UniProt P48426).
T2 sequence (P48426 whole entry): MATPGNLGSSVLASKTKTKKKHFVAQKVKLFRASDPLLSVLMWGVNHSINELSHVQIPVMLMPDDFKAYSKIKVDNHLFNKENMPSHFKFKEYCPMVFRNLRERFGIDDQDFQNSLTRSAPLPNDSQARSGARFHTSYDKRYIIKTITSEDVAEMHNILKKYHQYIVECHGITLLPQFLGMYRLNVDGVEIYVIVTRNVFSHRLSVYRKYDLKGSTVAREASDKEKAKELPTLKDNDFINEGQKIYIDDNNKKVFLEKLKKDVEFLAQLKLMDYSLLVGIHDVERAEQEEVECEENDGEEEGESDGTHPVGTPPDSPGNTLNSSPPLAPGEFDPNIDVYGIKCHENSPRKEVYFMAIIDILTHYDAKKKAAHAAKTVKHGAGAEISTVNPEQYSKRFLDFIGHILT

Test [5] has as its target Serine/threonine-protein kinase PAK 2 (Homo sapiens, UniProt Q13177).
The target in test [6] is T3, Mitogen-activated protein kinase kinase kinase 2 (Homo sapiens, UniProt Q9Y2U5).
T3 sequence (Q9Y2U5 whole entry): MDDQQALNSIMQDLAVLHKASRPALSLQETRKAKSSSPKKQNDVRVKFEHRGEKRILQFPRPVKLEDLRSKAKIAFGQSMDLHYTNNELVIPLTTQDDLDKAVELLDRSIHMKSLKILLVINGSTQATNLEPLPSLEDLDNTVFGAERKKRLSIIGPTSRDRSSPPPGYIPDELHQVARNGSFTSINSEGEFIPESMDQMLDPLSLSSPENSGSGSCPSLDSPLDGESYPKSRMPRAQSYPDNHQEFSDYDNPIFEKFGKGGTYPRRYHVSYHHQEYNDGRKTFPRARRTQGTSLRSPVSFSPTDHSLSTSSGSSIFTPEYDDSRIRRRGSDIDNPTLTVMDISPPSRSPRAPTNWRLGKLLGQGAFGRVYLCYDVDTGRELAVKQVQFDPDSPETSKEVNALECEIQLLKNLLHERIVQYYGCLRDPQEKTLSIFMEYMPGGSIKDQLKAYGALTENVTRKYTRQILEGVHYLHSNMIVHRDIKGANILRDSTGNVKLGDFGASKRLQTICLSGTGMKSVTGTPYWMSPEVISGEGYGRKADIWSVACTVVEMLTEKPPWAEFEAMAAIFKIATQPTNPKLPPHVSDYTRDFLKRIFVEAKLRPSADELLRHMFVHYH

Activity calls are given as the source filed them. Cut-off read from the data, not from the text of the source, for most assays here: actives have a measured Kd and inactives only a lower limit. A value given as a limit tells only on which side of the number the result lay.
Note: in the data inactive means no Kd found up to 30 µM.

Sequence of Aurora kinase B (Q96GD4 whole entry, canonical isoform): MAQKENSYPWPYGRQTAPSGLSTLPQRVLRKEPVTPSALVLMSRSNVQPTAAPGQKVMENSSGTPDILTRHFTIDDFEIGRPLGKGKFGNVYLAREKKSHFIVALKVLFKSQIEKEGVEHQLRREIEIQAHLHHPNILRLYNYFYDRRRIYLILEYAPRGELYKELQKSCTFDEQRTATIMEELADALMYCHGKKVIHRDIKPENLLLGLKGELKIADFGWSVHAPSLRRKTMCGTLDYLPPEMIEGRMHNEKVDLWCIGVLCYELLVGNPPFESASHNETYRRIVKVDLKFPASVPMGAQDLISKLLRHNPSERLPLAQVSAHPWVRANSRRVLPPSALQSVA
Sequence of Serine/threonine-protein kinase PAK 2 (Q13177 whole entry): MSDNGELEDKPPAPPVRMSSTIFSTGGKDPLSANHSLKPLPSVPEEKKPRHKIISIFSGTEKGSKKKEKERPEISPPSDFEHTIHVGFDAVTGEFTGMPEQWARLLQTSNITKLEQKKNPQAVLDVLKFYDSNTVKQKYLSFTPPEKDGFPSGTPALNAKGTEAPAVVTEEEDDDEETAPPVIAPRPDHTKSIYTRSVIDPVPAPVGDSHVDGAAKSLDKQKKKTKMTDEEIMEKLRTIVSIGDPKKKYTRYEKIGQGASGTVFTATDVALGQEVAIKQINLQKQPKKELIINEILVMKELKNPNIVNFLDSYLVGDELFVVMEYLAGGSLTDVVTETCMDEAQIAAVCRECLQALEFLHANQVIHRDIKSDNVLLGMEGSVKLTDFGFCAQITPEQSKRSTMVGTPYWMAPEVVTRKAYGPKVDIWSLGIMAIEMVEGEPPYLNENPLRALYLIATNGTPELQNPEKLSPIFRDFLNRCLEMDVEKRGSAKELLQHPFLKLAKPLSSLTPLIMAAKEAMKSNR
Sequence of Insulin receptor (P06213 28-758 limits assumed): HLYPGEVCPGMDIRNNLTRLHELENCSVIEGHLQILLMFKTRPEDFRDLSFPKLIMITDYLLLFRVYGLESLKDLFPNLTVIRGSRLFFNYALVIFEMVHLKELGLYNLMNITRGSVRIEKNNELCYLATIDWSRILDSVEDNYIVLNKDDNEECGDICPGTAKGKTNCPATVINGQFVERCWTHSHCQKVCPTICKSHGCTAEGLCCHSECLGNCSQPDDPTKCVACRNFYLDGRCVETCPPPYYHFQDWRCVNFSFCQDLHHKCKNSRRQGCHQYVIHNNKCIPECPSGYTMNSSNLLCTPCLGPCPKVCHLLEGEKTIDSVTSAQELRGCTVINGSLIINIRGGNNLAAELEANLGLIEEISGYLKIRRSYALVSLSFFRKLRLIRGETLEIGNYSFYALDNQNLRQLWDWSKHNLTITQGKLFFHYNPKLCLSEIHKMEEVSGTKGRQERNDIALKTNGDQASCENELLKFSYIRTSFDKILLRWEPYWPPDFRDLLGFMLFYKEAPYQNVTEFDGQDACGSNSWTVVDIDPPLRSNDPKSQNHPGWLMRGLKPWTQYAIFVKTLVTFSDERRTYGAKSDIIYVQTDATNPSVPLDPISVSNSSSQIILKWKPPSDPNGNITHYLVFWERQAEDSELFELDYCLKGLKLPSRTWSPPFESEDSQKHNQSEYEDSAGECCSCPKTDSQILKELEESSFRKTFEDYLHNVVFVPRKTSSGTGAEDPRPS
Sequence of Insulin receptor (P06213 763-1382 limits assumed): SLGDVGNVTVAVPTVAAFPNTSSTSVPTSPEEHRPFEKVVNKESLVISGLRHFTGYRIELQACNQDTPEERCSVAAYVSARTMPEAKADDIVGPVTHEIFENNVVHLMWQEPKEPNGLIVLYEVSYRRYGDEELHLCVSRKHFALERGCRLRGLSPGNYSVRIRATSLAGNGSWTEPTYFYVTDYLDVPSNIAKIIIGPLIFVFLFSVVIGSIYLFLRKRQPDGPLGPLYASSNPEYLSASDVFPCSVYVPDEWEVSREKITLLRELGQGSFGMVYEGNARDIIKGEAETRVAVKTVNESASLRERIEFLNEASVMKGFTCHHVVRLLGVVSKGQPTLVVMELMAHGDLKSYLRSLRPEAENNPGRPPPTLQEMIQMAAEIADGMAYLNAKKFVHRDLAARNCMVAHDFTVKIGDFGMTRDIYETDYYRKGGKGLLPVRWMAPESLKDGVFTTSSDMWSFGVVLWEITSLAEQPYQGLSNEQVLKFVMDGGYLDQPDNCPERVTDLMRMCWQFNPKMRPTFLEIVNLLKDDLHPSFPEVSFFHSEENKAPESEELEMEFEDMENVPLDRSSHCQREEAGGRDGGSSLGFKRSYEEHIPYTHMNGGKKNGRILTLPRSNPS
Sequence of Cyclin-dependent kinase 12 (Q9NYV4 whole entry): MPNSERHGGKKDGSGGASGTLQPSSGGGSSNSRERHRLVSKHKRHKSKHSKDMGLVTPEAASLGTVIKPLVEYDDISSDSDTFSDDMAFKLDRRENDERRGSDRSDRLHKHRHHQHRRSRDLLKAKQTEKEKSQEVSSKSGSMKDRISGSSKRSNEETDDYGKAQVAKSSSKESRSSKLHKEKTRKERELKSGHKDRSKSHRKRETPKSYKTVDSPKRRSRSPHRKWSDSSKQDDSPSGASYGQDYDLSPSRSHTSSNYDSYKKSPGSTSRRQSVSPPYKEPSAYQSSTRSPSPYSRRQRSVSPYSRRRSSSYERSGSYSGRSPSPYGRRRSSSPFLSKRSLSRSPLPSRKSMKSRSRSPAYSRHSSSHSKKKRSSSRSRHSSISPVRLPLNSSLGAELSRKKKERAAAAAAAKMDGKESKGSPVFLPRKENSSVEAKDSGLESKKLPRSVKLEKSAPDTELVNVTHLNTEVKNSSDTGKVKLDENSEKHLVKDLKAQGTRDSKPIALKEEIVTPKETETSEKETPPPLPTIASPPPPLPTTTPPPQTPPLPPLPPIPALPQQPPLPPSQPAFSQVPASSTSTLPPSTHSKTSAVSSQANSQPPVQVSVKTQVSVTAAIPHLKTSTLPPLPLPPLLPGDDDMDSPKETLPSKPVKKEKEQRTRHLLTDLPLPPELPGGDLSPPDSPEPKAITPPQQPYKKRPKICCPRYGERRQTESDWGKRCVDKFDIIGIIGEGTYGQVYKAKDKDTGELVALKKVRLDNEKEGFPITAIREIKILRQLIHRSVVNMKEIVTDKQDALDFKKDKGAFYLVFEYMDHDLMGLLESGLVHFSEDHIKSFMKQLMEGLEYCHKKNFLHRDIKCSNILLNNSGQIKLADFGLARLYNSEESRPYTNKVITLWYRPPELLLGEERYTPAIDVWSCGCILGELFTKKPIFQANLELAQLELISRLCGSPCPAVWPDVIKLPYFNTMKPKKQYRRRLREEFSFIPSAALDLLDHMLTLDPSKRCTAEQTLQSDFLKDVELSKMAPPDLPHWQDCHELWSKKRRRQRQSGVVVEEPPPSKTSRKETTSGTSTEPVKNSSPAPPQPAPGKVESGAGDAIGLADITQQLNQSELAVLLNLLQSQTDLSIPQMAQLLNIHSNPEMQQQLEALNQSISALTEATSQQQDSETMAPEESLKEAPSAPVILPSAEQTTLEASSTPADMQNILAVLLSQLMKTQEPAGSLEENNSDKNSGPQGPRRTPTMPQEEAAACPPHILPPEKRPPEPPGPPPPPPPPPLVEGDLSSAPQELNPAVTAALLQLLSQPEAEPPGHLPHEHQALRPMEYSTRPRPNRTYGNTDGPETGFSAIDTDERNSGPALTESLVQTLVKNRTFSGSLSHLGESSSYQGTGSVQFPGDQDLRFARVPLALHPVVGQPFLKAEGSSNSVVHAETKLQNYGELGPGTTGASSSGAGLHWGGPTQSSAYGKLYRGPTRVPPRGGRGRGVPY
Sequence of Casein kinase I isoform delta (P48730 whole entry, canonical isoform): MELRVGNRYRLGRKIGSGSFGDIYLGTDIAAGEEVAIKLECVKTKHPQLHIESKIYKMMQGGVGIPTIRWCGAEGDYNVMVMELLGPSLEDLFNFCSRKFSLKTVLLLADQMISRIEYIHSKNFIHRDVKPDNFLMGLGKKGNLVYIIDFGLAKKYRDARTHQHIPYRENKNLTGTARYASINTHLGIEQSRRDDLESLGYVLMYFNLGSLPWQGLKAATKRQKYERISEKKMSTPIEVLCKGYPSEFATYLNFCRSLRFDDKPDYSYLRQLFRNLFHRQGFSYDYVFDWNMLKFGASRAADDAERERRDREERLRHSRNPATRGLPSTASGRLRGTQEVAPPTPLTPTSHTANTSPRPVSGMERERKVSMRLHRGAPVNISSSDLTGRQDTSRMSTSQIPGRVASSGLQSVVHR

As for `Cc1cc(Nc2nc(N[C@@H](C)c3ncc(F)cn3)ncc2Cl)n[nH]1` [AZD-1480], the dissociation constant Kd was 1.56 µM (active) at Aurora kinase B; > 30 µM (inactive) in test [1]; > 30 µM (inactive) at Insulin receptor; > 30 µM (inactive) in test [2]; > 30 µM (inactive) in test [3]; > 30 µM (inactive) in test [4]. In addition, the Kd in test [5] and in test [6] was > 30 µM (inactive) throughout.

Consider `C#Cc1cccc(Nc2ncnc3cc4c(cc23)OCCOCCOCCO4)c1` [ICOTINIB], for which the Kd (at Aurora kinase B; in test [1]; at Insulin receptor; in test [2]; in test [3]; in test [5]) was > 30 µM (inactive) in each case. For the same molecule, the Kd in test [6] was > 30 µM (inactive).

Consider `CCOc1ccn(-c2ccc(F)cc2)c(=O)c1C(=O)Nc1ccc(Oc2ccnc(N)c2Cl)c(F)c1` [BMS-777607], for which the dissociation constant (Kd) at Aurora kinase B is 1.07 µM (active); in test [1], > 30 µM (inactive); in test [2], > 30 µM (inactive); in test [3], > 30 µM (inactive); in test [4] it was > 30 µM (inactive); in test [5], > 30 µM (inactive). The Kd in test [6] is > 30 µM (inactive).

`CNC(=O)c1cc(COc2nnc(Nc3ccc(Cl)cc3)c3ccoc23)ccn1` [TELATINIB]: the Kd (at Aurora kinase B; in test [1]; on Insulin receptor; in test [2]; in test [3]; in test [5]) was > 30 µM (inactive) in each case. In test [6], the Kd is > 30 µM (inactive).

`COc1cc2ncnc3c2cc1OCCCCCN(C)Cc1ccc(Br)cc1N3` [JNJ-26483327]: the Kd (on Aurora kinase B; in test [1]; at Insulin receptor; in test [2]; in test [3]; in test [5]) was > 30 µM (inactive) in each case. Moreover, the Kd in test [6] is > 30 µM (inactive).

With `COc1ccc(-c2ccc3ncc4c(c3c2)n(-c2ccc(N3CCNCC3)c(C(F)(F)F)c2)c(=O)n4C)cn1` [BGT-226 FREE BASE], the Kd (on Aurora kinase B; in test [1]; at Insulin receptor; in test [2]; in test [3]; in test [5]) was > 30 µM (inactive) in each case. Further, in test [6], the Kd was > 30 µM (inactive).

For the molecule `C=CC(=O)Nc1cccc(Nc2nc(Nc3ccc(N4CCN(C(C)=O)CC4)cc3OC)ncc2C(F)(F)F)c1` [ROCILETINIB], the Kd (on Aurora kinase B; in test [1]; on Insulin receptor; in test [2]; in test [3]; in test [5]) was > 30 µM (inactive) throughout. Further, in test [6], the Kd is > 30 µM (inactive).

Consider `CC(C)(O)CC(=O)NCCn1ccc2ncnc(Nc3ccc(Oc4cccc(C(F)(F)F)c4)c(Cl)c3)c21` [TAK-285], for which the Kd (on Aurora kinase B; in test [1]; on Insulin receptor; in test [2]; in test [3]; in test [5]) was > 30 µM (inactive) throughout. Moreover, the Kd in test [6] was > 30 µM (inactive).

As for `C=CCN(/C=C1/C(=O)O[C@H](COC)[C@@]2(C)C1=C(O)C(=O)C1=C2[C@H](OC(C)=O)C[C@]2(C)C(=O)CC[C@@H]12)CC=C` [SONOLISIB], the Kd (at Aurora kinase B; in test [1]; at Insulin receptor; in test [2]; in test [3]; in test [5]) was > 30 µM (inactive) each time. Further, the Kd in test [6] was > 30 µM (inactive).

Consider `O=C(NC[C@H](O)CO)c1ccncc1Nc1ccc(I)cc1F` [PIMASERTIB], for which the Kd (on Aurora kinase B; in test [1]; at Insulin receptor; in test [2]; in test [3]; in test [5]) was > 30 µM (inactive) in each case. Moreover, the Kd in test [6] was > 30 µM (inactive).

Turning to `COc1cc(Nc2ncc(F)c(Nc3ccc4c(n3)N(COP(=O)(O)O)C(=O)C(C)(C)O4)n2)cc(OC)c1OC` [FOSTAMATINIB], the Kd (in test [1]; on Insulin receptor; in test [2]; in test [3]; in test [4]; in test [5]) was > 30 µM (inactive) in each case. In addition, the Kd in test [6] was > 30 µM (inactive).

For the molecule `CN1CCN(c2nc(C3=C(c4c[nH]c5ccccc45)C(=O)NC3=O)c3ccccc3n2)CC1` [SOTRASTAURIN], the Kd (on Aurora kinase B; in test [1]; in test [2]; in test [3]; in test [5]; in test [6]) was > 30 µM (inactive) each time.

With `CC(C)CC(=O)Nc1[nH]nc2c1CN(C(=O)C1CCN(C)CC1)C2(C)C` [PHA-793887], the Kd on Aurora kinase B was > 30 µM (inactive); in test [1], > 30 µM (inactive); in test [2] it was > 30 µM (inactive); in test [3] it was 3.66 µM (active); in test [5], > 30 µM (inactive); in test [6] it was > 30 µM (inactive).

With `CN(c1ncccc1CNc1nc(Nc2ccc3c(c2)CC(=O)N3)ncc1C(F)(F)F)S(C)(=O)=O` [PF-00562271], the Kd is 1.04 µM (active) at Aurora kinase B; > 30 µM (inactive) in test [2]; > 30 µM (inactive) in test [3]; > 30 µM (inactive) in test [4]; > 30 µM (inactive) in test [5]; > 30 µM (inactive) in test [6].

Take `COc1cc2nccc(Oc3ccc(NC(=O)C4(C(=O)Nc5ccc(F)cc5)CC4)cc3)c2cc1OC` [CABOZANTINIB]: the Kd was > 30 µM (inactive) in test [1]; > 30 µM (inactive) at Insulin receptor; 0.342 µM (active) in test [2]; > 30 µM (inactive) in test [3]; > 30 µM (inactive) in test [4]; > 30 µM (inactive) in test [5]. For the same molecule, in test [6], the Kd is > 30 µM (inactive).

As usually defined, the Kd is the equilibrium constant for the complex coming apart.

The values above are taken from ChEMBL document CHEMBL3991601, “The target landscape of clinical kinase drugs” (Science, 2017).
